“And” between values parts separate entries of the source, which are not always exact repeats. Equal entries are not always repeated.
Conditions: Liquid, Calculated from knudsen effusion weight loss

Cc1ccc(C(=O)O)s1 [5-methyl-2-thiophenecarboxylic acid]
Conditions	vapor or sublimation pressure
316.29 K	9e-05 kPa and 8.8e-05 kPa and 8.9e-05 kPa
318.25 K	0.000113 kPa and 0.000112 kPa and 0.00011 kPa
320.12 K	0.000139 kPa
322.28 K	0.00018 kPa and 0.000183 kPa
324.24 K	0.000229 kPa and 0.000226 kPa and 0.000222 kPa
326.12 K	0.000273 kPa and 0.000278 kPa and 0.000276 kPa
328.28 K	0.000341 kPa and 0.000356 kPa and 0.000355 kPa
330.22 K	0.000441 kPa and 0.000439 kPa and 0.000427 kPa
332.11 K	0.00054 kPa and 0.000539 kPa
334.28 K	0.0007 kPa and 0.000697 kPa and 0.00069 kPa
336.22 K	0.000859 kPa and 0.000855 kPa and 0.000843 kPa
338.11 K	0.001049 kPa and 0.001053 kPa and 0.001028 kPa

CC(=O)c1ccc(C(=O)O)s1 [5-acetyl-2-thiophenecarboxylic acid]
Conditions	vapor or sublimation pressure
364.15 K	0.00011 kPa and 0.000108 kPa and 0.000105 kPa
366.18 K	0.000133 kPa and 0.000135 kPa and 0.000129 kPa
368.18 K	0.000163 kPa and 0.00016 kPa
370.15 K	0.000205 kPa and 0.0002 kPa and 0.000208 kPa
372.17 K	0.000252 kPa and 0.00025 kPa and 0.000244 kPa
374.17 K	0.000303 kPa and 0.000307 kPa and 0.000298 kPa
376.15 K	0.000392 kPa and 0.000387 kPa and 0.000376 kPa
378.17 K	0.000471 kPa and 0.000472 kPa and 0.000451 kPa
380.18 K	0.000578 kPa and 0.000568 kPa and 0.000548 kPa
382.18 K	0.000707 kPa and 0.000698 kPa and 0.000683 kPa
384.18 K	0.000819 kPa and 0.000846 kPa and 0.000816 kPa
386.17 K	0.001019 kPa and 0.001018 kPa and 0.000988 kPa

Cc1ccsc1C(=O)O [3-methyl-2-thiophenecarboxylic acid]
Conditions	vapor or sublimation pressure
312.13 K	0.000104 kPa and 0.000102 kPa
314.2 K	0.000129 kPa and 0.00013 kPa and 0.000126 kPa
316.22 K	0.000164 kPa and 0.000162 kPa and 0.000159 kPa
318.13 K	0.000205 kPa and 0.000204 kPa and 0.000209 kPa
320.19 K	0.000264 kPa and 0.000261 kPa and 0.000254 kPa
322.21 K	0.000323 kPa and 0.00032 kPa and 0.000314 kPa
324.14 K	0.000412 kPa and 0.000407 kPa and 0.000418 kPa
326.18 K	0.000507 kPa and 0.000503 kPa
328.21 K	0.000636 kPa and 0.00063 kPa
330.15 K	0.000798 kPa and 0.000786 kPa and 0.000769 kPa
332.23 K	0.000984 kPa and 0.000972 kPa and 0.00094 kPa
334.2 K	0.001191 kPa and 0.001174 kPa and 0.001146 kPa

Source: the NIST ThermoML archive (doi:10.1016/j.jct.2008.04.013)
